Test results from ChEMBL document CHEMBL1140192, “Sorocenols G and H, anti-MRSA oxygen heterocyclic Diels-Alder-type adducts from Sorocea muriculata roots” (J Nat Prod, 2008).
Converted amounts (≈) assume the structure as drawn. The source made the active and inactive calls. No cut-off for these calls is given here.

Assays:
Type in all cases: functional, organism-based
Aspergillus fumigatus = experiment: Antifungal activity against Aspergillus fumigatus ATCC 90906 after 68 to 72 hrs
Candida albicans = experiment: Antifungal activity against Candida albicans ATCC 90028 after 18 to 24 hrs
Cryptococcus neoformans = experiment: Antifungal activity against Cryptococcus neoformans ATCC 90113 after 68 to 72 hrs
Staphylococcus aureus = experiment: Antibacterial activity against methicillin-resistant Staphylococcus aureus ATCC 43300 after 18 to 24 hrs
[1] = test system: Mycobacterium intracellulare; experiment: Antibacterial activity against Mycobacterium intracellular ATCC 23068 at 20 ug/mL after 68 to 72 hrs
Pseudomonas aeruginosa = experiment: Antibacterial activity against Pseudomonas aeruginosa ATCC 27853 at 20 ug/mL after 18 to 24 hrs
Escherichia coli = experiment: Antibacterial activity against Escherichia coli ATCC 35218 at 20 ug/mL after 18 to 24 hrs

SMILES	IC50 (Aspergillus fumigatus) [µM]	MFC (Aspergillus fumigatus) [µM]	MIC (Aspergillus fumigatus) [µM]	IC50 (Candida albicans) [µM]	MFC (Candida albicans) [µM]	MIC (Candida albicans) [µM]	IC50 (Cryptococcus neoformans) [µM]	MFC (Cryptococcus neoformans) [µM]	MIC (Cryptococcus neoformans) [µM]	Activity (Staphylococcus aureus)	MIC (Staphylococcus aureus) [µM]	Activity [1]	IC50 (Staphylococcus aureus) [µM]	MBC (Staphylococcus aureus) [µM]	Activity (Pseudomonas aeruginosa)	Activity (Aspergillus fumigatus)	Activity (Escherichia coli)	Activity (Candida albicans)	Activity (Cryptococcus neoformans)
C[C@@H]1[C@H](O)[C@@H](C)/C=C/C=C/C=C/C=C/C=C/C=C/C=C/[C@H](O[C@@H]2O[C@H](C)[C@@H](O)[C@H](N)[C@@H]2O)C[C@@H]2O[C@](O)(C[C@@H](O)C[C@@H](O)[C@H](O)CC[C@@H](O)C[C@@H](O)CC(=O)O[C@H]1C)C[C@H](O)[C@H]2C(=O)O [AMPHOTERICIN B]	1.6	2.7 (≈ 2.5 µg/mL)	2.7 (≈ 2.5 µg/mL)	0.3	1.4 (≈ 1.29 µg/mL)	0.7 (≈ 0.647 µg/mL)	0.9	2.5 (≈ 2.31 µg/mL)	1.4 (≈ 1.29 µg/mL)										
O=C(O)c1cn(C2CC2)c2cc(N3CCNCC3)c(F)cc2c1=O [CIPROFLOXACIN]										inactive	0.8 (≈ 0.265 µg/mL)								
CC1=C[C@@H]2c3c(O)cc(-c4cc5ccc(O)cc5o4)cc3O[C@]3(c4ccc(O)c5c4OC(C)(C)C=C5)Oc4cc(O)ccc4[C@H](C1)[C@@H]23 [SOROCENOL G]											4 (≈ 2.51 µg/mL)	inactive	1.5	31.8 (≈ 20 µg/mL)	inactive	inactive	inactive	Active	Active
CC(C)=CCc1c(O)ccc(C(=O)[C@H]2[C@H](c3c(O)cc(-c4cc5ccc(O)cc5o4)cc3O)C=C(C)C[C@H]2c2ccc(O)cc2O)c1O [SOROCENOL H]	10	30.8 (≈ 20 µg/mL)	15.4 (≈ 9.99 µg/mL)	5.4	30.8 (≈ 20 µg/mL)	15.4 (≈ 9.99 µg/mL)	5.4	7.7 (≈ 5 µg/mL)	7.7 (≈ 5 µg/mL)		1.9 (≈ 1.23 µg/mL)	inactive	0.5	30.8 (≈ 20 µg/mL)	inactive		inactive		
